Data from US20080064727A1, “Crystalline forms of tiagabine hydrochloride” (Cephalon, Inc., priority 2006, published 2008).
Entries after “also recorded” stand apart in the source; their conditions may differ.

What was measured:
Assay type in all cases: physicochemical
[1] = Solid-form stability on storage, resulting form by XRPD analysis; settings: for Form indicated by XRPD analysis after storage / Form converted to during storage: hydrochloride; for Form converted to during storage: during storage (summary statement, conditions not given)
Experimental: (§1) X-ray powder diffraction (XRPD) analyses were performed using the following instruments & methods:
(§2) A. Shimadzu XRD-6000 X-ray powder diffractometer using Cu Kα radiation. The instrument was equipped with a long fine focus X-ray tube. The tube voltage and amperage were set to 40 kV and 40 mA, respectively. The divergence and scattering slits were set at 1° and the receiving slit was set at 0.15 mm. Diffracted radiation was detected by a NaI scintillation detector. A θ-2θ continuous scan at 3°/min (0.4 sec/0.02° step) from 2.5 to 40° 2θ was used. A silicon standard was analyzed to check the instrument alignment. Data were collected and analyzed using XRD-6000 v. 4.1. Samples were prepared for analysis by placing them in a sample holder.
(§3) B. Inel XRG-3000 diffractometer, equipped with a CPS (Curved Position Sensitive) detector with a 2 Orange of 120°. Real time data were collected using Cu—Kα radiation starting at approximately 4° 2θ at a resolution of 0.03° 2θ. The tube voltage and amperage were set to 40 kV and 30 mA, respectively. The monochromator slit was set at 5 mm by 80 μm or 160 μm. […] Samples were prepared for analysis by packing them into thin-walled glass capillaries. Each capillary was mounted onto a goniometer head that is motorized to permit spinning of the capillary during data acquisition. The acquisition time was between 5 to 10 min. Instrument calibration was performed using a silicon reference standard.
(§4) D. Bruker D-8 Discover diffractometer and Bruker's General Area Diffraction Detection System (GADDS, v. 4.1.20). An incident beam of Cu—Kα radiation was produced using a fine-focus tube (40 kV, 40 mA), a Gobel mirror, and a 0.5 mm double-pinhole collimator. The samples were positioned for analysis by securing the well plate to a translation stage and moving each sample to intersect the incident beam. Alternatively, the sample was packed between 3-micron thick films to form a portable disc-shaped specimen, and the specimen was loaded in a holder secured to a translation stage. The samples were analyzed using a transmission geometry. The incident beam was scanned and rastered over the sample during the analysis to optimize orientation statistics. A beam-stop was used to minimize air scatter from the incident beam at low angles. Diffraction patterns were collected using a Hi-Star area detector located 15 cm from the sample and processed using GADDS. The intensity in the GADDS image of the diffraction pattern was integrated using a step size of 0.04° 2θ. The integrated patterns display diffraction intensity as a function of 2θ. Prior to the analysis a silicon standard was analyzed to verify the Si 111 peak position.
(§5) E. Peak Picking Methods. Any XRPD files generated from Inel or Bruker XRPD instruments were converted to Shimadzu .raw file using File Monkey version 3.0.4. The Shimadzu .raw file was processed by the Shimadzu XRD-6000 version 4.1 software to automatically find peak positions. The “peak position” means the maximum intensity of a peaked intensity profile. The following processes were used with the Shimadzu XRD-6000 “Basic Process” version 2.6 algorithm: • Smoothing was done on all patterns. • The background was subtracted to find the net, relative intensity of the peaks. • A peak from Cu K alpha2 (1.5444 Å) wavelength was subtracted from the peak generated by Cu K alpha1 (1.5406 Å) peak at 50% intensity for all patterns. Differential Scanning Calorimetry

[2] = Solid-form stability on drying under vacuum, resulting form by XRPD analysis
Experimental: as §1, §2, §3, §4, §5

[3] = Solid-form stability on heating, resulting form by XRPD analysis
Experimental: as §1, §2, §3
C. Shimadzu XRD-6000 X-ray powder diffractometer equipped with an Anton Paar HTK 1200 high temperature stage (Variable-temperature XRPD (VT-XRPD)). The sample was packed in a ceramic holder and analyzed form 2.5 to 40° 2θ at 3°/min (0.4 sec/0.02° step). The heating rate was 10° C./min. A silicon standard was analyzed to check the instrument alignment. Temperature calibration was performed using vanillin and sulfapyridine USP melting point standards. Data were collected and analyzed using XPD-6000 v.4.1. The system was kept under a purge of nitrogen during the analysis.
as §4
E. Peak Picking Methods. Any XRPD files generated from Inel or Bruker XRPD instruments were converted to Shimadzu .raw file using File Monkey version 3.0.4. The Shimadzu .raw file was processed by the Shimadzu XRD-6000 version 4.1 software to automatically find peak positions. The “peak position” means the maximum intensity of a peaked intensity profile. The following processes were used with the Shimadzu XRD-6000 “Basic Process” version 2.6 algorithm: • Smoothing was done on all patterns. • The background was subtracted to find the net, relative intensity of the peaks. • A peak from Cu K alpha2 (1.5444 Å) wavelength was subtracted from the peak generated by Cu K alpha1 (1.5406 Å) peak at 50% intensity for all patterns. […]

[4] = stored two months, ambient temperature and humidity
[5] = dried under vacuum at room temperature for less than one day, hydrochloride
[6] = stored five (5) days, 2-8° C., about 96% relative humidity
[7] = dried about 14 hours under vacuum at about 65° C., hydrochloride
[8] = under vacuum at room temperature for about four (4) days, hydrochloride
[9] = stored five (5) days, about 40° C., about 89% relative humidity
[10] = stored five (5) days, about 60° C., about 75% relative humidity

For `Cc1ccsc1C(=CCCN1CCC[C@@H](C(=O)O)C1)c1sccc1C.Cl` [Form C, tiagabine hydrochloride], the “Time stable when stored” value ([1]; ambient temperature and humidity) was 2 months and the “Form indicated by XRPD analysis after storage” value (“Form indicated … after storage” for short) [1, 4] was “tiagabine HCl Form C”.
For `Cc1ccsc1C(=CCCN1CCC[C@@H](C(=O)O)C1)c1sccc1C.Cl` [Form D, tiagabine hydrochloride], the “Form indicated by XRPD analysis after drying” value (“Form indicated … after drying” for short) [2, 5] was “a mixture of Form D containing a minor amount of Form A”, the “Form converted to during storage” value [1] was “tiagabine hydrochloride Form B, sometimes mixed with tiagabine hydrochloride Form Q” and the “Form indicated … after storage” value [1, 6] was “a mixture of tiagabine HCl Forms B and Q”. The “Form indicated … after storage” value [1, 4] was “a mixture of tiagabine HCl Forms Q and B”.
With `Cc1ccsc1C(=CCCN1CCC[C@@H](C(=O)O)C1)c1sccc1C.Cl` [Form S mixed with Form B, tiagabine hydrochloride] the “Form indicated … after drying” value [2, 7] was “a mixture of tiagabine HCl Forms S and B”.
For `Cc1ccsc1C(=CCCN1CCC[C@@H](C(=O)O)C1)c1sccc1C.Cl` [Form T, tiagabine hydrochloride], the “Form indicated … after drying” value [2, 8] was “tiagabine HCl Form C” and the “Form indicated by XRPD analysis after heating” value (“Form indicated … after heating” below) ([3]; heated to about 115-120° C. for approximately 10 minutes) was “tiagabine HCl Form B”.
In the case of `Cc1ccsc1C(=CCCN1CCC[C@@H](C(=O)O)C1)c1sccc1C.Cl` [Form AA, tiagabine hydrochloride], the “Form indicated … after drying” value [2, 5] is reported as “Form AA”.
In the case of `Cc1ccsc1C(=CCCN1CCC[C@@H](C(=O)O)C1)c1sccc1C.Cl` [Form J, tiagabine hydrochloride], the “Form converted to during storage” value [1] is reported as “a mixture of tiagabine hydrochloride Forms Q and B” and the “Form indicated … after storage” value [1, 4] is reported as “a mixture of tiagabine HCl Forms Q and B”.
For `Cc1ccsc1C(=CCCN1CCC[C@@H](C(=O)O)C1)c1sccc1C.Cl` [Form P containing Form B, tiagabine hydrochloride], the “Form indicated … after drying” value [2, 7] was “a mixture of tiagabine Form P and B” and the “Form indicated … after storage” value [1, 6] was “a mixture of tiagabine HCl Forms P and B”.
With `Cc1ccsc1C(=CCCN1CCC[C@@H](C(=O)O)C1)c1sccc1C.Cl` [Form D containing a minor amount of Form B] [tiagabine hydrochloride] the “Form indicated … after storage” value [1, 9] was “a mixture of tiagabine HCl Form B and a trace of Q” and the “Form indicated … after storage” value [1, 10] was “tiagabine HCl Form B and a trace of Q”.
With `Cc1ccsc1C(=CCCN1CCC[C@@H](C(=O)O)C1)c1sccc1C.Cl` [Form P, tiagabine hydrochloride] the “Form converted to during storage” value [1] was “Form B”, the “Form indicated … after storage” value [1, 9] was “tiagabine HCl Form B” and the “Form indicated … after storage” value [1, 10] was “tiagabine HCl Form B”.
With `Cc1ccsc1C(=CCCN1CCC[C@@H](C(=O)O)C1)c1sccc1C.Cl` [Form M, tiagabine hydrochloride] the “Form converted to during storage” value [1] was “a mixture of tiagabine hydrochloride Forms B and Q” and the “Form indicated … after storage” value [1, 4] was “a mixture of tiagabine HCl Forms B and Q”.
For `Cc1ccsc1C(=CCCN1CCC[C@@H](C(=O)O)C1)c1sccc1C.Cl` [Form H, tiagabine hydrochloride], the “Form indicated … after drying” value [2, 8] was “Form Q” and the “Form indicated … after heating” value ([3]; heated at 90-95° C. for about 10 minutes, hydrochloride) was “Form Q containing a minor amount of Form B”.
With `Cc1ccsc1C(=CCCN1CCC[C@@H](C(=O)O)C1)c1sccc1C.Cl` [Form Y, tiagabine hydrochloride] the “Form indicated … after drying” value [2, 5] was “Form Y” and the “Form indicated … after heating” value ([3]; heated at 100-110° C. for about 10 minutes) was “Form B containing a minor amount of Form Q”.
With `Cc1ccsc1C(=CCCN1CCC[C@@H](C(=O)O)C1)c1sccc1C.Cl` [Form I, tiagabine hydrochloride] the “Form converted to during storage” value [1] was “a mixture of tiagabine hydrochloride Forms S and B” and the “Form indicated … after storage” value [1, 4] was “a mixture of tiagabine HCl Forms S and B; also recorded: a mixture of Form S+Form B”.
For `Cc1ccsc1C(=CCCN1CCC[C@@H](C(=O)O)C1)c1sccc1C.Cl` [Form Z, tiagabine hydrochloride], the “Form indicated … after heating” value ([3]; heated at 90-95° C. for about 10 minutes, listed as From Z, hydrochloride) was “a mixture of Forms B and Q”.
With `Cc1ccsc1C(=CCCN1CCC[C@@H](C(=O)O)C1)c1sccc1C.Cl` [Form P containing a minor amount of Form B] [tiagabine hydrochloride] the “Form indicated … after drying” value ([2]; dried about 15 hours under vacuum at 40-95° C.) was “a mixture of tiagabine HCl Forms P and B” and the “Form indicated … after drying” value [2, 8] was “a mixture of tiagabine HCl Forms P and B”.
